In patent US11976061B2, “Preparation of benzimidazolone derivatives as novel diacylglyceride O-acyltransferase 2 inhibitors” (Merck Sharp & Dohme LLC, priority 2020, dated 2024):

Target: T1, human DGAT2 (hDGAT2) (Homo sapiens, UniProt Q96PD7)
T1 construct: made in house; host or cells: Sf-9 insect cells (baculovirus), membrane fraction
T1 sequence (Q96PD7 1-388): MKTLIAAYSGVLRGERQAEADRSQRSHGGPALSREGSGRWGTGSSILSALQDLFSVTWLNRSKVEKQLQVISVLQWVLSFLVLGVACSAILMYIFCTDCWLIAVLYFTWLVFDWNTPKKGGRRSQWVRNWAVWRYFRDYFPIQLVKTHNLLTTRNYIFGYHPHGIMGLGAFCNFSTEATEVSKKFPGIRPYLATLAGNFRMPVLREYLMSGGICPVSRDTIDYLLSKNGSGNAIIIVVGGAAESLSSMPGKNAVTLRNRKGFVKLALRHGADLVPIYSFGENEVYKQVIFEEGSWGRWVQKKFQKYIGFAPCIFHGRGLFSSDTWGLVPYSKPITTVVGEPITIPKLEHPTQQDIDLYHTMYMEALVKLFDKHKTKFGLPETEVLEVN
Assay: DGAT2 Enzymatic Activity Assay
Format: biochemical
Conditions: membrane prep of Sf-9 cells expressing hDGAT2; 25 μM diolein, 5 μM 13C oleoyl-CoA; 13C18-triolein by LC/MS/MS; read-out: DGAT2 IC50
Experimental: Insect Cell Expression and Membrane Preparation
Sf-9 insect cells were maintained in Grace's insect cell culture medium with 10% heated-inactivated fetal bovine serum, 1% Pluronic F-68 and 0.14 μg/ml Kanamycine sulfate at 27° C. in a shaker incubator. After infection with untagged baculovirus expressing human DGAT2 (hDGAT2) at multiplicity of infection (MOI) 3 for 48 hours, cells were harvested. Cell pellets were suspended in buffer containing 10 mM Tris-HCl pH 7.5, 1 mM EDTA, 250 mM sucrose and Complete Protease Inhibitor Cocktail (Sigma Aldrich), and sonicated on ice. Cell debris were removed by centrifugation at 2000×g for 15 minutes. Membrane fractions were isolated by ultracentrifugation (100,000×g), resuspended in the same buffer, and frozen (−80° C.) for later use. The protein concentration was determined with the Pierce™ BCA Protein Assay Kit (Thermo Fisher Scientific). Expression of protein levels was analyzed by immunoblotting with rabbit anti-DGAT2 antibody (Abcam, ab102831) and donkey anti-rabbit IgG H&L Alexa Fluor® 647 (Abcam, ab150075) followed by detection using Typhoon FLA9000 (GE Healthcare).
LC/MS/MS analyses were performed using Thermal Fisher's LX4-TSQ Vantage system. This system consists of an Agilent binary high-performance liquid chromatography (HPLC) pump and a TSQ Vantage triple quadrupole MS/MS instrument. For each sample, 2 μL samples from the top organic layer of in-plate liquid-liquid extraction were injected onto a Thermo Betabasic C4 column (2.1 mm×20 mm, 5 μm particle size). The samples were then eluted using the following conditions; mobile phase: Isopropanol:acetonitrile/10 mM ammonium formate=50/35/15 (v/v/v), flow rate: 0.8 mL/min, temperature: 25° C. Data was acquired in positive mode using a heated electrospray ionization (HESI) interface. The operational parameters for the TSQ Vantage MS/MS instrument were a spray voltage of 3000 V, capillary temperature of 280° C., vaporizer temperature 400° C., sheath gas 45 arbitrary unit, Aux gas 10 arbitrary units, S-lens 165 and collision gas 1.0 mTorr. […] (SRM) chromatograms of ^13C18-triolein (Q1: 920.8>Q3: 621.3) and internal standard ^13C21-triolein (Q1: 923.8>Q3: 617.3) were collected for 33 sec. The peak area was integrated by Xcalibur Quan software. The ratio between the ^13C18triolein generated in the reaction and spiked in internal standard ^13C21-triolein was used to generate percentage inhibition and IC50 values. Compound percentage inhibition was calculated by the following formula: Inhibition %=1−[(compound response−low control)/(high control−low control)]×100%. Potent compounds were titrated and IC50 were calculated by 4 parameter sigmoidal curve fitting formula.
DGAT2 Enzymatic Activity Assay
DGAT2 activity was determined by measuring the amount of enzymatic product ^13C18-triolein (^13C-1,2,3-Tri(cis-9-octadecenoyl)glycerol) using the membrane prep mentioned above. The assay was carried out in ABgene 384-well assay plates in a final volume of 25 μL at rt. The assay mixture contained the following: assay buffer (100 mM Tris·Cl, pH 7.0, 20 mM MgCl2, 5% ethanol), 25 μM of diolein, 5 μM of ^13C oleoyl-CoA and 8 ng/μL of DGAT2 membrane.

IC50 [nM]	SMILES
1	CC(n1c(=O)n(-c2cc(OC(F)(F)F)ccc2F)c2cc(F)c(C(=O)NC3(C)CCS(=O)(=O)CC3)cc21)C(C)(C)O (single isomer, unassigned) [Example 70a, 6-fluoro-1-(2-fluoro-5-(trifluoromethoxy)phenyl)-3-(3-hydroxy-3-methylbutan-2-yl)-N-(4-methyl-1,1-dioxidotetrahydro-2H-thiopyran-4-yl)-2-oxo-2,3-dihydro-1H-benzo[d]imidazole-5-carboxamide]
30.4	CC(n1c(=O)n(-c2cc(OC(F)(F)F)ccc2F)c2cc(F)c(C(=O)NC3(C)CCS(=O)(=O)CC3)cc21)C(C)(C)O (single isomer, unassigned) [Example 70b, 6-fluoro-1-(2-fluoro-5-(trifluoromethoxy)phenyl)-3-(3-hydroxy-3-methylbutan-2-yl)-N-(4-methyl-1,1-dioxidotetrahydro-2H-thiopyran-4-yl)-2-oxo-2,3-dihydro-1H-benzo[d]imidazole-5-carboxamide]
71	CC(n1c(=O)n(-c2cc(OC(F)(F)F)ccc2F)c2ccc(C(=O)NC3(C)CCS(=O)(=O)CC3)cc21)C(C)(C)O (single isomer, unassigned) [Example 71a, 1-(2-fluoro-5-(trifluoromethoxy)phenyl)-3-(3-hydroxy-3-methylbutan-2-yl)-N-(4-methyl-1,1-dioxidotetrahydro-2H-thiopyran-4-yl)-2-oxo-2,3-dihydro-1H-benzo[d]imidazole-5-carboxamide]
5.4	CC(n1c(=O)n(-c2cc(OC(F)(F)F)ccc2F)c2ccc(C(=O)NC3(C)CCS(=O)(=O)CC3)cc21)C(C)(C)O (single isomer, unassigned) [Example 71b, 1-(2-fluoro-5-(trifluoromethoxy)phenyl)-3-(3-hydroxy-3-methylbutan-2-yl)-N-(4-methyl-1,1-dioxidotetrahydro-2H-thiopyran-4-yl)-2-oxo-2,3-dihydro-1H-benzo[d]imidazole-5-carboxamide]
6.4	CC(n1c(=O)n(-c2cc(OCC(F)F)ncc2F)c2ccc(C(=O)NC3(C)CCS(=O)(=O)CC3)cc21)C(C)(C)O (single isomer, unassigned) [Example 72a, 1-(2-(2,2-difluoroethoxy)-5-fluoropyridin-4-yl)-3-(3-hydroxy-3-methylbutan-2-yl)-N-(4-methyl-1,1-dioxidotetrahydro-2H-thiopyran-4-yl)-2-oxo-2,3-dihydro-1H-benzo[d]imidazole-5-carboxamide]
6.6	CC(n1c(=O)n(-c2cc(OCC(F)F)ncc2F)c2ccc(C(=O)NC3(C)CCS(=O)(=O)CC3)cc21)C(C)(C)O (single isomer, unassigned) [Example 72b, 1-(2-(2,2-difluoroethoxy)-5-fluoropyridin-4-yl)-3-(3-hydroxy-3-methylbutan-2-yl)-N-(4-methyl-1,1-dioxidotetrahydro-2H-thiopyran-4-yl)-2-oxo-2,3-dihydro-1H-benzo[a]imidazole-5-carboxamide]
2.6	CC(n1c(=O)n(-c2cc(OCC(F)F)ccc2F)c2ccc(C(=O)NC3(C)CCS(=O)(=O)CC3)cc21)C(C)(C)O (single isomer, unassigned) [Example 73a, 1-(5-(2,2-difluoroethoxy)-2-fluorophenyl)-3-(3-hydroxy-3-methylbutan-2-yl)-N-(4-methyl-1,1-dioxidotetrahydro-2H-thiopyran-4-yl)-2-oxo-2,3-dihydro-1H-benzo[a]imidazole-5-carboxamide]
6.1	CC(n1c(=O)n(-c2cc(OCC(F)F)ncc2F)c2cc(F)c(C(=O)NC3(C)CCS(=O)(=O)CC3)cc21)C(C)(C)O (single isomer, unassigned) [Example 74a, 1-(2-(2,2-difluoroethoxy)-5-fluoropyridin-4-yl)-6-fluoro-3-(3-hydroxy-3-methylbutan-2-yl)-N-(4-methyl-1,1-dioxidotetrahydro-2H-thiopyran-4-yl)-2-oxo-2,3-dihydro-1H-benzo[d]imidazole-5-carboxamide]
6.5	CC(n1c(=O)n(-c2cc(OCC(F)F)ncc2F)c2cc(F)c(C(=O)NC3(C)CCS(=O)(=O)CC3)cc21)C(C)(C)O (single isomer, unassigned) [Example 74b, 1-(2-(2,2-difluoroethoxy)-5-fluoropyridin-4-yl)-6-fluoro-3-(3-hydroxy-3-methylbutan-2-yl)-N-(4-methyl-1,1-dioxidotetrahydro-2H-thiopyran-4-yl)-2-oxo-2,3-dihydro-1H-benzo[d]imidazole-5-carboxamide]
1.5	CC(n1c(=O)n(-c2cc(OCC(F)F)ccc2F)c2cc(F)c(C(=O)NC3(C)CCS(=O)(=O)CC3)cc21)C(C)(C)O (single isomer, unassigned) [Example 75a, 1-(5-(2,2-difluoroethoxy)-2-fluorophenyl)-6-fluoro-3-(3-hydroxy-3-methylbutan-2-yl)-N-(4-methyl-1,1-dioxidotetrahydro-2H-thiopyran-4-yl)-2-oxo-2,3-dihydro-1H-benzo[d]imidazole-5-carboxamide]
2.4	CC(n1c(=O)n(-c2cc(OCC(F)F)ccc2F)c2cc(F)c(C(=O)NC3(C)CCS(=O)(=O)CC3)cc21)C(C)(C)O (single isomer, unassigned) [Example 75b, 1-(5-(2,2-difluoroethoxy)-2-fluorophenyl)-6-fluoro-3-(3-hydroxy-3-methylbutan-2-yl)-N-(4-methyl-1,1-dioxidotetrahydro-2H-thiopyran-4-yl)-2-oxo-2,3-dihydro-1H-benzo[d]imidazole-5-carboxamide]
80	CC(n1c(=O)n(-c2cccc(OC(F)(F)C(F)F)c2)c2ccc(C(=O)NC3(C)CS(=O)(=O)C3)cc21)C(C)(C)O (single isomer, unassigned) [Example 76a, 3-(3-hydroxy-3-methylbutan-2-yl)-N-(3-methyl-1,1-dioxidothietan-3-yl)-2-oxo-1-(3-(1,1,2,2-tetrafluoroethoxy)phenyl)-2,3-dihydro-1H-benzo[d]imidazole-5-carboxamide]
7.9	CC(n1c(=O)n(-c2cccc(OC(F)(F)C(F)F)c2)c2ccc(C(=O)NC3(C)CS(=O)(=O)C3)cc21)C(C)(C)O (single isomer, unassigned) [Example 76b, 3-(3-hydroxy-3-methylbutan-2-yl)-N-(3-methyl-1,1-dioxidothietan-3-yl)-2-oxo-1-(3-(1,1,2,2-tetrafluoroethoxy)phenyl)-2,3-dihydro-1H-benzo[d]imidazole-5-carboxamide]
5.6	CC(n1c(=O)n(-c2cccc(OC(F)(F)C(F)F)c2)c2ccc(C(=O)NC3(C)CCS(=O)(=O)CC3)cc21)C(C)(C)O (single isomer, unassigned) [Example 77a, 3-(3-hydroxy-3-methylbutan-2-yl)-N-(4-methyl-1,1-dioxidotetrahydro-2H-thiopyran-4-yl)-2-oxo-1-(3-(1,1,2,2-tetrafluoroethoxy)phenyl)-2,3-dihydro-1H-benzo[d]imidazole-5-carboxamide]
9.8	CC(n1c(=O)n(-c2cccc(OC(F)(F)C(F)F)c2)c2ccc(C(=O)NC3(C)CCS(=O)(=O)CC3)cc21)C(C)(C)O (single isomer, unassigned) [Example 77b, 3-(3-hydroxy-3-methylbutan-2-yl)-N-(4-methyl-1,1-dioxidotetrahydro-2H-thiopyran-4-yl)-2-oxo-1-(3-(1,1,2,2-tetrafluoroethoxy)phenyl)-2,3-dihydro-1H-benzo[d]imidazole-5-carboxamide]
